Structures can show the parent of a compound that is named as a salt.
Key:
[1] = target: rhTDO (recombinant human TDO) (Homo sapiens, UniProt P48775); experiment: Enzyme assay using rhTDO (rate of kynurenine production); assay type: biochemical; details: 2 h; final concentration of the compound 10 μM; rate relative to reaction without compound; read-out: rhTDO-mediated kynurenine production
Method in brief: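 Kynurenine output, as percent of untreated control after background subtraction, read at 490 nm with p-dimethylbenzaldehyde following TCA quench and 15 min heating at 50 °C. Reaction: rhTDO with compound, 10 min preincubation then 120 min at 37 °C, started by 20 mM tryptophan stock, in phosphate/ascorbate/methylene blue/catalase.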

[2] = target: T1, TDO in A172 cells (Homo sapiens, UniProt P48775); experiment: TDO cell-based assay, kynurenine production in A172 cells; details: A 172; final concentration of the compound 10 μM; rate relative to culture without compound
T1 construct: endogenous in cells; host or cells: A172 cells
Method in brief: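 A172 cells were preincubated with compound for 1 h, then given L-tryptophan (final 524 μM) for 24 h at 37 °C. Kynurenine was read at 460 nm after p-dimethylbenzaldehyde/TCA reagent, background-subtracted, and expressed as % of no-compound production.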

[3] = target: T2, IDO in A431 cells (Homo sapiens, UniProt P14902); experiment: IDO cell-based assay, kynurenine production in IFN-γ stimulated A431 cells; details: A-431, 24 h; final concentration of the compound 10 μM; rate relative to culture without compound
T2 construct: endogenous in cells; host or cells: A431 cells, IFN-γ stimulated
Method in brief: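 Kynurenine output was read by absorbance at 460 nm after p-dimethylbenzaldehyde/trichloroacetic acid reagent, background-corrected, and given as % of untreated wells. Before the read, cells in 178 μM L-tryptophan medium had 1 h compound preincubation, then 24 h IFN-γ stimulation (added as 100 ng/mL dilution).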

[4] = target: rhIDO (recombinant human IDO) (Homo sapiens, UniProt P14902); experiment: Enzyme assay using rhIDO (rate of kynurenine production); assay type: biochemical; details: 2 h; final concentration of the compound 10 μM; rate relative to reaction without compound; read-out: rhIDO-mediated kynurenine production
Method in brief: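 Kynurenine formation, expressed as % of uncompounded reaction after background subtraction, was read by absorbance at 490 nm following TCA stop, 50 °C hydrolysis and Ehrlich-type p-dimethylbenzaldehyde staining. Recombinant human IDO with ascorbate/methylene blue/catalase was pre-exposed to compound 10 min, then reacted 120 min at 37 °C after adding 2 mM tryptophan stock.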

T2 sequence (P14902 whole entry): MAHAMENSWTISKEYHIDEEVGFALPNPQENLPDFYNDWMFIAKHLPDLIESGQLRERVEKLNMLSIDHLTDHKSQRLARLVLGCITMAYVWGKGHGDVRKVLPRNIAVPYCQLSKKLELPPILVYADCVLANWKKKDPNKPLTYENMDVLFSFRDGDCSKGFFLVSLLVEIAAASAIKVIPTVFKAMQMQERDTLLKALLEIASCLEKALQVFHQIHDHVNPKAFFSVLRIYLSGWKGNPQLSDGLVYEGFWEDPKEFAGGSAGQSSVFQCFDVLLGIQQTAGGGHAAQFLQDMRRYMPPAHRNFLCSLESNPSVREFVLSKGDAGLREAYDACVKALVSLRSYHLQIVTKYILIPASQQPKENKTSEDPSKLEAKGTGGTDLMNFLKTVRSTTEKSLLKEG
rhIDO (recombinant human IDO), sequence (P14902 whole entry): as above
rhTDO (recombinant human TDO), sequence (P48775 whole entry): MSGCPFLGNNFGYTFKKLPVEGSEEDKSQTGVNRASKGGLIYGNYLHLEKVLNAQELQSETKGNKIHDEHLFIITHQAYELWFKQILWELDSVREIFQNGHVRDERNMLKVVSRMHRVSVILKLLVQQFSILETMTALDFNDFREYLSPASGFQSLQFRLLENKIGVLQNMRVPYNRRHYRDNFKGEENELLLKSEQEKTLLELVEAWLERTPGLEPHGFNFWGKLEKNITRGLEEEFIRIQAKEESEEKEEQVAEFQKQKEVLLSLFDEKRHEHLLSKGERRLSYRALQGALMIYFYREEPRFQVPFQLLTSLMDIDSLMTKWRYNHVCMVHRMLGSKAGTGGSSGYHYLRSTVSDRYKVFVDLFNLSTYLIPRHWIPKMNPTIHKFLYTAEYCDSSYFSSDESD
T1 sequence (P48775 whole entry): as above

SMILES | remaining activity at 10 µM [1] | remaining activity at 10 µM [2] | remaining activity at 10 µM [3] | remaining activity at 10 µM [4]
CNC(=O)c1ccc(C#N)cc1CSC(=N)N [Compound 77, 5-Cyano-2-(methylcarbamoyl)benzyl carbamimidothioate hydrobromide] | 101% | 89% | 103% | 74%
N=C(N)SCc1cc(Br)ccc1C(=O)NCCc1ccc(Cl)cc1 [Compound 78, 5-Bromo-2-((4-chlorophenethyl)carbamoyl)benzyl carbamimidothioate hydrobromide] | 25% | 56% | 112% | 74%
CNC(=O)Cc1ccccc1CS/C(N)=N/c1ccc(Br)cc1 [Compound 79, 2-(2-(Methylamino)-2-oxoethyl)benzyl (E)-N′-(4-bromophenyl)carbamimidothioate hydrobromide] | 34% | 38% | 60% | 90%
CNC(=O)Cc1ccccc1CS/C(N)=N/c1ccc(F)c(Cl)c1 [Compound 80, 2-(2-(Methylamino)-2-oxoethyl)benzyl (E)-N′-(3-chloro-4-fluorophenyl)carbamimidothioate hydrobromide] | 38% | 45% | 66% | 97%
CNC(=O)c1ccc(C#N)cc1CS/C(N)=N/c1ccc(Br)cc1 [Compound 81, 5-Cyano-2-(methylcarbamoyl)benzyl (E)-N′-(4-bromophenyl)carbamimidothioate hydrobromide] | 121% | 89% | 78% | 81%
N=C(N)SCc1cc(Br)ccc1C(=O)NCc1ccc(Cl)cc1 [Compound 82, 5-Bromo-2-((4-chlorobenzyl)carbamoyl)benzyl carbamimidothioate hydrobromide] | 27% | 37% | 99% | 89%
N/C(=N\c1ccc(F)c(Cl)c1)SCc1cc(Br)ccc1C(=O)NCc1ccc(Cl)cc1 [Compound 83, 5-Bromo-2-((4-chlorobenzyl)carbamoyl)benzyl (E)-N′-(3-chloro-4-fluorophenyl)carbamimidothioate hydrobromide] | 59% | 21% | 75% | 80%
N/C(=N\c1ccc(Br)cc1)SCc1cc(Br)ccc1C(=O)NCc1ccc(Cl)cc1 [Compound 84, 5-Bromo-2-((4-chlorobenzyl)carbamoyl)benzyl (E)-N′-(4-bromophenyl)carbamimidothioate hydrobromide] | 65% | 18% | 56% | 84%
N#Cc1ccc(CNC(=O)c2ccc(Br)cc2CS/C(N)=N/c2ccc(F)c(Cl)c2)cc1 [Compound 85, 5-Bromo-2-((4-cyanobenzyl)carbamoyl)benzyl (E)-N′-(3-chloro-4-fluorophenyl)carbamimidothioate hydrobromide] | 50% | 16% | 56% | 71%
N=C(N)SCc1cc(Br)ccc1C(=O)NCc1ccc(F)cc1 [Compound 86, 5-Bromo-2-((4-fluorobenzyl)carbamoyl)benzyl carbamimidothioate hydrobromide] | 46% | 36% | 109% | 92%
N#Cc1ccc(CNC(=O)c2ccc(Br)cc2CS/C(N)=N/c2ccc(Br)cc2)cc1 [Compound 87, 5-Bromo-2-((4-cyanobenzyl)carbamoyl)benzyl (E)-N′-(4-bromophenyl)carbamimidothioate hydrobromide] | 51% | 13% | 67% | 75%
N/C(=N\c1ccc(F)c(Cl)c1)SCc1cc(Br)ccc1C(=O)NCc1ccc(F)cc1 [Compound 88, 5-Bromo-2-((4-fluorobenzyl)carbamoyl)benzyl (E)-N′-(3-chloro-4-fluorophenyl)carbamimidothioate hydrobromide] | 92% | 28% | 64% | 82%
N=C(N)SCc1cc(Br)ccc1C(=O)NCc1ccc(Cl)cc1Cl [Compound 89, 5-Bromo-2-((2,4-dichlorobenzyl)carbamoyl)benzyl carbamimidothioate hydrobromide] | 12% | 51% | 122% | 81%
Cc1ccc(CNC(=O)c2ccc(Br)cc2CSC(=N)N)cc1 [Compound 90, 5-Bromo-2-((4-methylbenzyl)carbamoyl)benzyl carbamimidothioate hydrobromide] | 45% | 51% | 96% | 90%
Cc1ccc(CNC(=O)c2ccc(Br)cc2CS/C(N)=N/c2ccc(F)c(Cl)c2)cc1 [Compound 91, 5-Bromo-2-((4-methylbenzyl)carbamoyl)benzyl (E)-N′-(3-chloro-4-fluorophenyl)carbamimidothioate hydrobromide] | 103% | 26% | 51% | 78%
CNC(=O)c1ccccc1CSC(=N)N [Compound 92, 2-(Methylcarbamoyl)benzyl carbamimidothioate hydrobromide] | 68% | 81% | 112% | 90%
N=C(N)SCc1cc(Br)ccc1C(=O)NCC1CC1 [Compound 93, 5-Bromo-2-((cyclopropylmethyl)carbamoyl)benzyl carbamimidothioate hydrobromide] | 53% | 49% | 124% | 103%
N=C(N)SCc1cc(Br)ccc1C(=O)NCc1ccc(Cl)c(Cl)c1 [Compound 94, 5-Bromo-2-((3,4-dichlorobenzyl)carbamoyl)benzyl carbamimidothioate hydrobromide] | 15% | 59% | 158% | 80%
N#Cc1ccc(CNC(=O)c2ccccc2CSC(=N)N)cc1 [Compound 96, 2-((4-Cyanobenzyl)carbamoyl)benzyl carbamimidothioate hydrobromide] | 26% | 38% | 93% | 71%
N=C(N)SCc1cc(Br)ccc1C(=O)NCc1ccc(Br)cc1 [Compound 97, 5-Bromo-2-((4-bromobenzyl)carbamoyl)benzyl carbamimidothioate hydrobromide] | 16% | 37% | 83% | 85%
CNC(=O)c1ncccc1CSC(=N)N [Compound 98, (2-(Methylcarbamoyl)pyridin-3-yl)methyl carbamimidothioate hydrobromide] | 91% | 133% | 107% | 95%
N#Cc1ccc(CNC(=O)c2ncccc2CSC(=N)N)cc1 [Compound 99, (2-((4-Cyanobenzyl)carbamoyl)pyridin-3-yl)methyl carbamimidothioate hydrobromide] | 75% | 106% | 102% | 96%
CNC(=O)c1cccnc1CSC(=N)N [Compound 100, (3-(Methylcarbamoyl)pyridin-2-yl)methyl carbamimidothioate hydrobromide] | 84% | 123% | 93% | 88%
N#Cc1ccc(CNC(=O)c2ncccc2CS/C(N)=N/c2ccc(F)c(Cl)c2)cc1 [Compound 101, (2-((4-Cyanobenzyl)carbamoyl)pyridin-3-yl)methyl (E)-N′-(3-chloro-4-fluorophenyl)carbamimidothioate hydrobromide] | 84% | 70% | 61% | 78%
COc1ccc(CNC(=O)c2ccc(Br)cc2CSC(=N)N)cc1 [Compound 102, 5-Bromo-2-((4-methoxybenzyl)carbamoyl)benzyl carbamimidothioate hydrobromide] | 58% | 38% | 112% | 97%

From US12209079B2 (GENERAL INCORPORATED ASSOCIATION PHARMA VALLEY PROJECT …, priority 2017, dated 2025)
